Reference: patent publication EP4768499A1, “MACROCYCLIC PEPTIDE COMPOUND HAVING CELL MEMBRANE PERMEABILITY AND METABOLIC STABILITY, AND LIBRARY CONTAINING SAME” (Chugai Seiyaku Kabushiki Kaisha, priority 2023, dated 2025)
Where two headings read alike, the source gives them in different places. Starred links: 1 amine or outer side, 2 acyl side, 3 side chain; linkers in the order of their positions; H or OH if unused. Non-standard residues stand in square brackets, D forms with d. Residues, ends and D or L forms follow the SMILES beside them. *: point of attachment. NMedβ3hAla = C[C@H](CC(=O)[*:2])N(C)[*:1]; NMeF = CN[C@@H](Cc1ccccc1)C(=O)O; NMeGABA = CN(CCCC(=O)[*:2])[*:1]; NMeI = CC[C@H](C)[C@H](NC)C(=O)O; NMeT = CN[C@H](C(=O)O)[C@@H](C)O; hPhe = N[C@@H](CCc1ccccc1)C(=O)O; NMeβAla = CN(CCC(=O)[*:2])[*:1]; NMeL = CN[C@@H](CC(C)C)C(=O)O; NMeV = CN[C@H](C(=O)O)C(C)C; d(β3hA) = C[C@@H](N)CC(=O)O; NMeAbu = CC[C@H](NC)C(=O)O; NMeA = CN[C@@H](C)C(=O)O; dNMeA = CN[C@H](C)C(=O)O; Abu = CC[C@H](N)C(=O)O; βAla = NCCC(=O)O; Sar = CNCC(=O)O; tBu = CC(C)(C)*

Columns and labels:
[1] = system: Caco-2 cells; test: Membrane permeability test using Caco-2 cells with preincubation; type: in vitro ADME
[2] = as above; type: in vitro ADME; conditions: Caco-2
[3] = Metabolic stability test: liver microsomal stability assay; type: in vitro ADME, mouse; conditions: for microsomal CLint at 1 µM: male, pH 7.4, presence of NADPH, read-out: Mouse Hepatic Microsome CLh,int NADPH(+)
[4] = Caco-2 cells, preincubation 20 to 24 hours, apical FaSSIF/HBSS 1% DMSO pH 6.0, basal HBSS 4% BSA pH 7.4, basal sample at 180 minutes
[5] = preincubation 20 to 24 hours, Apical FaSSIF/HBSS pH 6.0, Basal HBSS 4% BSA pH 7.4, 180 minutes, read-out: Caco2 Papp
[6] = mouse liver microsomes 0.5 mg protein/mL, compound 1 µM
[7] = mouse liver microsomes 0.5 mg protein/mL, compound 1 µM, absence of NADPH

Row | Caco2 Papp (10^-6 cm/sec) [1, 4] | Papp A→B [2, 5] | microsomal CLint at 1 µM [3, 6] | Mouse Hepatic Microsome CLh,int NADPH(-) [3, 7] | Caco2 Papp (10^-6 cm/sec) ([1]; Caco-2) | Papp A→B [2] | Mouse Hepatic Microsome CLh,int NADPH(-) [3] | SMILES
1 | 0.54 10^-6 cm/sec | 0.54 ×10⁻⁶ cm/s | 13.2 µL/min/mg | 15.9 µL/min/mg Protein | – | – | – | CC[C@H](C)[C@@H]1NC(=O)[C@H](C)N(C)C(=O)[C@H]([C@@H](C)O)N(C)C(=O)[C@H](CC(C)C)N(C)C(=O)[C@H]([C@@H](C)CC)NC(=O)[C@H](Cc2ccccc2)N(C)C(=O)[C@H](Cc2ccccc2)N(C)C(=O)[C@H](C)NC(=O)[C@H](COC(C)(C)C)NC(=O)[C@H](CC)N(C)C(=O)[C@H](C(C)C)NC(=O)CCCN(C)C(=O)C[C@@H](C)NC(=O)[C@H](C(C)C)N(C)C1=O [pd050] (cyclo(A[NMeF][NMeF]I[NMeL][NMeT][NMeA]I[NMeV][d(β3hA)][NMeGABA]V[NMeAbu]S(tBu)))
2 | 1.01 10^-6 cm/sec | 1.01 ×10⁻⁶ cm/s | 28 µL/min/mg | 32.0 µL/min/mg Protein | – | – | – | CC[C@H](C)[C@H]1C(=O)N[C@@H]([C@@H](C)O)C(=O)N(C)CC(=O)N(C)[C@@H](CC(C)C)C(=O)N[C@@H](CC(C)C)C(=O)N[C@H](C)CC(=O)N(C)[C@@H](C)C(=O)N[C@@H](CC(C)C)C(=O)N(C)[C@@H](C)C(=O)N(C)[C@@H](CC(C)C)C(=O)N[C@@H](COC(C)(C)C)C(=O)N(C)[C@@H](Cc2ccccc2)C(=O)N[C@@H](C(C)C)C(=O)N(C)[C@@H](CC(C)C)C(=O)N1C [pd052] (cyclo(L[NMeA][NMeL]S(tBu)[NMeF]V[NMeL][NMeI]T[Sar][NMeL]L[d(β3hA)][NMeA]))
3 | 1.64 10^-6 cm/sec | 1.64 ×10⁻⁶ cm/s | 45.7 µL/min/mg | 24.1 µL/min/mg Protein | – | – | – | CC[C@@H]1NC(=O)[C@H](CC(C)C)N(C)C(=O)[C@H]([C@@H](C)CC)NC(=O)[C@H](CC(C)C)N(C)C(=O)C[C@@H](C)NC(=O)[C@H](C(C)C)N(C)C(=O)[C@H](CC(C)C)NC(=O)[C@H](CC)N(C)C(=O)[C@H](Cc2ccccc2)N(C)C(=O)[C@@H]2CCCN2C(=O)[C@H](CC(C)C)NC(=O)[C@H]([C@@H](C)O)N(C)C(=O)[C@H](C)NC(=O)[C@H](CC(C)C)N(C)C1=O [pd053] (cyclo(A[NMeT]LP[NMeF][NMeAbu]L[NMeV][d(β3hA)][NMeL]I[NMeL][Abu][NMeL]))
4 | 0.49 10^-6 cm/sec | 0.49 ×10⁻⁶ cm/s | 32.5 µL/min/mg | 25.1 µL/min/mg Protein | – | – | – | CC[C@H](C)[C@@H]1NC(=O)[C@@H]2CCCN2C(=O)[C@H](C(C)C)N(C)C(=O)[C@H](CC(C)C)NC(=O)[C@@H](C)N(C)C(=O)C[C@@H](C)NC(=O)[C@H](C(C)C)N(C)C(=O)[C@H](Cc2ccccc2)N(C)C(=O)[C@H](COC(C)(C)C)NC(=O)[C@H](CC(C)C)N(C)C(=O)[C@H](C)N(C)C(=O)[C@H](CC(C)C)N(C)C(=O)[C@H]([C@@H](C)O)NC(=O)[C@H](Cc2ccccc2)N(C)C1=O [pd054] (cyclo(I[NMeF]T[NMeL][NMeA][NMeL]S(tBu)[NMeF][NMeV][d(β3hA)][dNMeA]L[NMeV]P))
5 | 0.12 10^-6 cm/sec | 0.12 ×10⁻⁶ cm/s | 27.1 µL/min/mg | 15.0 µL/min/mg Protein | – | – | – | CC[C@@H]1NC(=O)[C@H](C)N(C)C(=O)[C@H](C(C)C)N(C)C(=O)[C@H]([C@@H](C)CC)NC(=O)[C@H](C)N(C)C(=O)CCCN(C)C(=O)C[C@@H](C)NC(=O)[C@H](C(C)C)N(C)C(=O)[C@H](CCc2ccccc2)NC(=O)CCN(C)C(=O)[C@H]([C@@H](C)O)N(C)C(=O)[C@H](CC(C)C)N(C)C(=O)[C@H]([C@@H](C)CC)NC(=O)[C@H](Cc2ccccc2)N(C)C1=O [pd055] (cyclo([Abu][NMeF]I[NMeL][NMeT][NMeβAla][hPhe][NMeV][d(β3hA)][NMeGABA][NMeA]I[NMeV][NMeA]))
6 | 0.27 10^-6 cm/sec | 0.27 ×10⁻⁶ cm/s | 55.9 µL/min/mg | 30.2 µL/min/mg Protein | – | – | – | CC[C@H](C)[C@@H]1NC(=O)[C@H](CC(C)C)N(C)C(=O)[C@H](CC(C)C)NC(=O)[C@H](C)N(C)C(=O)[C@H](Cc2ccccc2)N(C)C(=O)[C@@H]2CCCN2C(=O)[C@H](CC(C)C)N(C)C(=O)[C@H](CCc2ccccc2)NC(=O)CCN(C)C(=O)C[C@@H](C)NC(=O)[C@H](CC(C)C)N(C)C(=O)[C@H]([C@@H](C)O)NC(=O)[C@H](C)N(C)C(=O)[C@H](C(C)C)N(C)C1=O [pd056] (cyclo(I[NMeV][NMeA]T[NMeL][d(β3hA)][NMeβAla][hPhe][NMeL]P[NMeF][NMeA]L[NMeL]))
7 | 0.72 10^-6 cm/sec | 0.72 ×10⁻⁶ cm/s | 16.3 µL/min/mg | 14.8 µL/min/mg Protein | – | – | – | CC[C@H]1C(=O)N[C@@H](COC(C)(C)C)C(=O)N(C)[C@@H](Cc2ccccc2)C(=O)N(C)[C@@H](C(C)C)C(=O)N[C@H](C)CC(=O)N(C)[C@H](C)C(=O)N(C)[C@@H](CC(C)C)C(=O)N(C)[C@@H](C(C)C)C(=O)N2CCC[C@H]2C(=O)N[C@@H](C(C)C)C(=O)N(C)[C@@H](Cc2ccccc2)C(=O)N[C@@H]([C@@H](C)O)C(=O)N(C)[C@@H](CC(C)C)C(=O)N(C)[C@@H](C)C(=O)N1C [pd058] (cyclo([NMeA][NMeAbu]S(tBu)[NMeF][NMeV][d(β3hA)][dNMeA][NMeL][NMeV]PV[NMeF]T[NMeL]))
8 | 0.52 10^-6 cm/sec | 0.52 ×10⁻⁶ cm/s | 12.7 µL/min/mg | 18.6 µL/min/mg Protein | – | – | – | CC[C@H](C)[C@@H]1NC(=O)[C@H](C)N(C)C(=O)CCCN(C)C(=O)C[C@@H](C)NC(=O)[C@H](C(C)C)N(C)C(=O)[C@H](CC(C)C)N(C)C(=O)[C@H](C)N(C)C(=O)[C@H]([C@@H](C)O)N(C)C(=O)[C@H](CCc2ccccc2)NC(=O)[C@H](C(C)C)NC(=O)[C@H](Cc2ccccc2)N(C)C(=O)[C@H](CC)N(C)C(=O)[C@H](C)N(C)C(=O)[C@H](C(C)C)N(C)C1=O [pd059] (cyclo(I[NMeV][NMeA][NMeAbu][NMeF]V[hPhe][NMeT][NMeA][NMeL][NMeV][d(β3hA)][NMeGABA][NMeA]))
9 | 0.51 10^-6 cm/sec | 0.51 ×10⁻⁶ cm/s | 39 µL/min/mg | 39.7 µL/min/mg Protein | – | – | – | CC[C@H](C)[C@@H]1NC(=O)[C@H](CC(C)C)N(C)C(=O)C[C@@H](C)NC(=O)[C@H](C(C)C)N(C)C(=O)[C@H](COC(C)(C)C)NC(=O)[C@H](CC)N(C)C(=O)[C@H](Cc2ccccc2)N(C)C(=O)[C@H](CC(C)C)NC(=O)[C@@H]2CCCN2C(=O)[C@H]([C@@H](C)O)N(C)C(=O)[C@H](CC(C)C)N(C)C(=O)[C@H](CC)N(C)C(=O)[C@H](C(C)C)N(C)C(=O)[C@H](CC(C)C)N(C)C1=O [pd061] (cyclo(I[NMeL][NMeV][NMeAbu][NMeL][NMeT]PL[NMeF][NMeAbu]S(tBu)[NMeV][d(β3hA)][NMeL]))
10 | – | – | – | – | <0.11 10^-6 cm/sec | < 0.11 ×10⁻⁶ cm/s | 24.1 µL/min/mg Protein | CC[C@@H]1NC(=O)[C@H](CC(C)C)N(C)C(=O)CCNC(=O)[C@H](Cc2ccccc2)N(C)C(=O)[C@H](Cc2ccccc2)N(C)C(=O)CNC(=O)[C@H]([C@@H](C)CC)NC(=O)[C@H](CC(C)C)N(C)C(=O)CCCN(C)C(=O)C[C@@H](C)N(C)C(=O)[C@H](CC(C)C)NC(=O)[C@H]([C@@H](C)CC)NC(=O)[C@H](C)N(C)C(=O)[C@H](C(C)C)NC1=O [pd062] (cyclo([Abu]V[NMeA]IL[NMedβ3hAla][NMeGABA][NMeL]IG[NMeF][NMeF][βAla][NMeL]))
11 | 0.03 10^-6 cm/sec | 0.03 ×10⁻⁶ cm/s | 47.5 µL/min/mg | 33.7 µL/min/mg Protein | – | – | – | CC[C@@H]1NC(=O)[C@H](CC(C)C)N(C)C(=O)[C@H](COC(C)(C)C)NC(=O)[C@H]([C@@H](C)CC)NC(=O)[C@H](Cc2ccccc2)N(C)C(=O)CNC(=O)[C@H]([C@@H](C)CC)NC(=O)[C@H](CC(C)C)N(C)C(=O)CCCN(C)C(=O)C[C@@H](C)N(C)C(=O)[C@H](CC(C)C)NC(=O)[C@H](C)N(C)C(=O)[C@H](Cc2ccccc2)N(C)C(=O)[C@H](C(C)C)NC1=O [pd063] (cyclo([Abu]V[NMeF][NMeA]L[NMedβ3hAla][NMeGABA][NMeL]IG[NMeF]IS(tBu)[NMeL]))
12 | 0.04 10^-6 cm/sec | 0.04 ×10⁻⁶ cm/s | 41.4 µL/min/mg | 43.3 µL/min/mg Protein | – | – | – | CC[C@@H]1NC(=O)[C@H](C(C)C)NC(=O)[C@H]([C@@H](C)CC)N(C)C(=O)[C@H](CCc2ccccc2)NC(=O)[C@H](Cc2ccccc2)N(C)C(=O)[C@H]([C@@H](C)CC)NC(=O)[C@H](CC(C)C)N(C)C(=O)[C@H](CC(C)C)NC(=O)CCN(C)C(=O)C[C@@H](C)N(C)C(=O)[C@H](CC(C)C)N(C)C(=O)CNC(=O)[C@@H]2CCCN2C(=O)[C@H](CC(C)C)N(C)C1=O [pd064] (cyclo([Abu][NMeL]PG[NMeL][NMedβ3hAla][NMeβAla]L[NMeL]I[NMeF][hPhe][NMeI]V))
13 | 0.33 10^-6 cm/sec | 0.33 ×10⁻⁶ cm/s | 38.9 µL/min/mg | 36.4 µL/min/mg Protein | – | – | – | CC[C@@H]1NC(=O)[C@H](CC(C)C)N(C)C(=O)[C@H](COC(C)(C)C)NC(=O)[C@H]([C@@H](C)CC)N(C)C(=O)[C@H](CCc2ccccc2)NC(=O)[C@H](Cc2ccccc2)N(C)C(=O)[C@H]([C@@H](C)CC)NC(=O)[C@H](CC(C)C)N(C)C(=O)[C@H](CC(C)C)N(C)C(=O)CCN(C)C(=O)C[C@@H](C)N(C)C(=O)CN(C)C(=O)[C@H](CC(C)C)N(C)C(=O)[C@@H]2CCCN2C1=O [pd066] (cyclo([Abu]P[NMeL][Sar][NMedβ3hAla][NMeβAla][NMeL][NMeL]I[NMeF][hPhe][NMeI]S(tBu)[NMeL]))
